The values that follow come from patent US11155539B2, “4-pyridinylmethyl-morpholine derivatives and the use thereof as medicament” (Boehringer Ingelheim International GmbH, priority 2018, dated 2021).

Experiment [1] addresses T1, Nav1.6 (Homo sapiens, UniProt Q9UQD0). Kind of experiment: Nav 1.6 inhibition, IonWorks Quattro electrophysiology. It counts as cell-based. The method, then: Determination of Nav 1.6.Inhibition
IonWorks Quattro electrophysiological platform
The compounds were prepared in DMSO at 300× the final assay concentrations of 1 and 5 μM.
The 300×DMSO stock solutions were transferred into assay plates where 2 μl per well of each 300× stock solution were placed. All assay plates were stored at −80° C. until the day of assay.
On the day of the assay, the appropriate assay plate was thawed at room temperature, centrifuged, and 198 μl of external recording solution was added and mixed thoroughly. This provided a 1:100 dilution. A further 1:3 dilution occurred upon addition to the cells in the IonWorks Quattro electrophysiological platform, giving a 1:300 dilution in total. On each assay plate, at least 8 wells were reserved for vehicle control (0.3% DMSO) and at least 8 wells for each positive control specific to the cell line tested. The positive controls were tested at a maximal blocking and an approximate IC50 concentration. As positive control Lidocaine at concentrations of 30 and 1000 μM was used.
The solutions for recording Nav1.6 currents were as follows:
Amphotericin B was used to obtain electrical access to the cell interior at a final concentration of 200 μg/ml in internal recording solution.
State-dependent inhibition: Sodium channels when held at depolarized potential or long test pulse, the channels open and inactivate and then stay inactivated until the membrane potential is stepped back to hyperpolarized potentials, when the inactivated channels recover from inactivation into closed state.
Cells were held at −120 mV. In order to completely inactivate the sodium channels (pulse 1), the cells were pulsed to +0 mV for 2500 ms and stepped back to −120 mV for 10 ms (to completely recover from inactivation, however channels that had drugs bound to them will not recover from inactivation) before stepping to +0 mV for 20 ms (pulse 2).
Both the positive and vehicle control data associated with each cell line assayed are shown below as an example. The mean is shown for each positive and negative control as solid symbol with the total number of individual well replicates given next to the solid symbol. In addition, the individual data of each well are shown on the graph as open symbols so that the variation about the mean value can be readily assessed.
Shown below are the assay controls for the Nav1.6 IonWorks Quattro assay.
Tables 3 and 4 show the normalized percentage inhibition of Nav1.6 channel. […] (see also the figure Assay Control Results above).
A general note: The patch-clamp technique gives a direct electrical read-out from membranes.

Experiment [2] concerns the target T2, NMDA NR1/NR2B receptor (Homo sapiens, UniProt Q13224).
T2 construct: host or cells: HEK293, tetracycline-inducible expression
Kind of experiment: In vitro NMDA NR1/NR2B cell assay (FLIPR, intracellular calcium induced by glycine/glutamate). The class given is cell-based. The settings on record: see Table 2. The method, then:
(§1) A human HEK293 cell line with tetracyclin-inducible expression of NMDA NR1/NR2B receptor was used as a test system for compound efficacy and potency. The cell line was purchased from ChanTest, Catalog #CT6121. Compound activity was determined by measuring the effect of compounds on intracellular calcium concentration induced by glycine/glutamate agonism in a FLIPRtetra system (Molecular Devices).
(§2) The cells were obtained as frozen cells in cryo-vials and stored until use at −150° C. Cells were grown in culture medium (DMEM/F12, 10% FBS, 5 μg/mL Blasticidin, 150 μg/mL Zeozin, 500 μg/mL Geneticin). […] For sub-culturing the cells were detached from flasks by Versene. For the assay, cells were detached, washed twice with induction medium (DMEM/F12 without glutamine, 10% FBS, 2 μg/mL Tetracycline, 2 mM Ketamine) and seeded to 384 well pure coat amine plates (Becton Dickinson, 50000 cells per well in 50 μl) 48 h prior to assay in induction medium.
(§3) The test compounds were dissolved in 100% DMSO at a concentration of 10 mM and in a first step diluted in DMSO to a concentration of 5 mM, followed by serial dilution steps in 100% DMSO. Dilution factor and number of dilution steps may vary according to needs. Typically 8 different concentrations by 1:5 dilutions were prepared in duplicate, further intermediate dilutions (1:37.5) of the substances were carried out with aqueous assay buffer (137 mM NaCl, 4 mM KCl, 1.8 mM CaCl2, 10 mM HEPES, 10 mM Glucose, pH 7.4) resulting in a compound concentration 3 times above the final test concentration and DMSO at 2.7% resulting in 0.9% final DMSO concentration in the assay.
(§4) At the assay day cells were washed 3× with assay buffer (as described above), 10 μL buffer remained in the wells after washing. 10 μL Ca kit loading buffer (AAT Bioquest; prepared from the kit containing the following components: Component A: Fluo-8 NW dissolved in 200 μL DMSO and 20 μl of this solution are mixed with 10 ml buffer prepared out of component B and C, Component B: 10× Pluronic® F127 Plus diluted 1:10 in component C, Component C: HHBS (Hanks with 20 mM Hepes) was added to the cells and the plates were incubated with lid for 60 minutes at room temperature. 20 μl assay buffer containing 60 μM glycine (20 μM final) and 3 μM glutamate (1 μM final) was added to column 1-23, column 24 got assay buffer without glycine/glutamate to serve as negative unstimulated control. Fluorescence (indicating the calcium influx as a result of the NR1/NR2B ion channel activation) was read on the FLIPRtetra device for 60 seconds to monitor the glutamate induced effects. After 2 minutes 20 μL of compound dilution prepared as described above or controls (row 1-22) in assay buffer were carefully added to the wells. […] The average of 2 measurements at 5 minutes and […] 10 seconds after compound addition is calculated and further used for IC50 calculations. Each assay microtiter compound dilution plate contained wells (in column 23 or 24) with DMSO controls instead of compound as controls for glycine/glutamate induced fluorescence (high controls) and wells with 1 μM of a reference NR2B NAM as low controls (Compound 22; reference: Layton, Mark E et al, ACS Chemical Neuroscience 2011, 2(7), 352-362).
(§5) The output file of the reader contains the well number and measured average fluorescence units. For data evaluation and calculation, the measurement of the low control was set as 0% control and the measurement of the high control was set as 100% control. The IC50 values were calculated using the standard 4 parameter logistic regression formula. Calculation: [y=(a−d)/(1+(x/c)^b)+d], a=low value, d=high value; x=conc M; c=IC50 M; b=slope.
Background: Calcium flux is commonly read through the fluorescence of an indicator in the cells.

The target in experiment [3] is T1, Nav1.6. Particulars: reported in WO2015/130905; cited from earlier work.
The target of experiment [4] is T3, NMDA NR1/NR2B receptor (Homo sapiens, UniProt Q05586+Q13224).
T3 construct: host or cells: HEK293, tetracycline-inducible expression
Kind of experiment: In vitro NMDA NR1/NR2B cell assay (FLIPR, intracellular calcium induced by glycine/glutamate). It counts as cell-based. Particulars: HEK293 cells expressing NMDA NR1/NR2B; 20 μM glycine, 1 μM glutamate; read-out: IC50 (in vitro NR2B affinity, FLIPR assay). As to the method:
as §1, §2, §3, §4, §5

T1 sequence (Q9UQD0 whole entry): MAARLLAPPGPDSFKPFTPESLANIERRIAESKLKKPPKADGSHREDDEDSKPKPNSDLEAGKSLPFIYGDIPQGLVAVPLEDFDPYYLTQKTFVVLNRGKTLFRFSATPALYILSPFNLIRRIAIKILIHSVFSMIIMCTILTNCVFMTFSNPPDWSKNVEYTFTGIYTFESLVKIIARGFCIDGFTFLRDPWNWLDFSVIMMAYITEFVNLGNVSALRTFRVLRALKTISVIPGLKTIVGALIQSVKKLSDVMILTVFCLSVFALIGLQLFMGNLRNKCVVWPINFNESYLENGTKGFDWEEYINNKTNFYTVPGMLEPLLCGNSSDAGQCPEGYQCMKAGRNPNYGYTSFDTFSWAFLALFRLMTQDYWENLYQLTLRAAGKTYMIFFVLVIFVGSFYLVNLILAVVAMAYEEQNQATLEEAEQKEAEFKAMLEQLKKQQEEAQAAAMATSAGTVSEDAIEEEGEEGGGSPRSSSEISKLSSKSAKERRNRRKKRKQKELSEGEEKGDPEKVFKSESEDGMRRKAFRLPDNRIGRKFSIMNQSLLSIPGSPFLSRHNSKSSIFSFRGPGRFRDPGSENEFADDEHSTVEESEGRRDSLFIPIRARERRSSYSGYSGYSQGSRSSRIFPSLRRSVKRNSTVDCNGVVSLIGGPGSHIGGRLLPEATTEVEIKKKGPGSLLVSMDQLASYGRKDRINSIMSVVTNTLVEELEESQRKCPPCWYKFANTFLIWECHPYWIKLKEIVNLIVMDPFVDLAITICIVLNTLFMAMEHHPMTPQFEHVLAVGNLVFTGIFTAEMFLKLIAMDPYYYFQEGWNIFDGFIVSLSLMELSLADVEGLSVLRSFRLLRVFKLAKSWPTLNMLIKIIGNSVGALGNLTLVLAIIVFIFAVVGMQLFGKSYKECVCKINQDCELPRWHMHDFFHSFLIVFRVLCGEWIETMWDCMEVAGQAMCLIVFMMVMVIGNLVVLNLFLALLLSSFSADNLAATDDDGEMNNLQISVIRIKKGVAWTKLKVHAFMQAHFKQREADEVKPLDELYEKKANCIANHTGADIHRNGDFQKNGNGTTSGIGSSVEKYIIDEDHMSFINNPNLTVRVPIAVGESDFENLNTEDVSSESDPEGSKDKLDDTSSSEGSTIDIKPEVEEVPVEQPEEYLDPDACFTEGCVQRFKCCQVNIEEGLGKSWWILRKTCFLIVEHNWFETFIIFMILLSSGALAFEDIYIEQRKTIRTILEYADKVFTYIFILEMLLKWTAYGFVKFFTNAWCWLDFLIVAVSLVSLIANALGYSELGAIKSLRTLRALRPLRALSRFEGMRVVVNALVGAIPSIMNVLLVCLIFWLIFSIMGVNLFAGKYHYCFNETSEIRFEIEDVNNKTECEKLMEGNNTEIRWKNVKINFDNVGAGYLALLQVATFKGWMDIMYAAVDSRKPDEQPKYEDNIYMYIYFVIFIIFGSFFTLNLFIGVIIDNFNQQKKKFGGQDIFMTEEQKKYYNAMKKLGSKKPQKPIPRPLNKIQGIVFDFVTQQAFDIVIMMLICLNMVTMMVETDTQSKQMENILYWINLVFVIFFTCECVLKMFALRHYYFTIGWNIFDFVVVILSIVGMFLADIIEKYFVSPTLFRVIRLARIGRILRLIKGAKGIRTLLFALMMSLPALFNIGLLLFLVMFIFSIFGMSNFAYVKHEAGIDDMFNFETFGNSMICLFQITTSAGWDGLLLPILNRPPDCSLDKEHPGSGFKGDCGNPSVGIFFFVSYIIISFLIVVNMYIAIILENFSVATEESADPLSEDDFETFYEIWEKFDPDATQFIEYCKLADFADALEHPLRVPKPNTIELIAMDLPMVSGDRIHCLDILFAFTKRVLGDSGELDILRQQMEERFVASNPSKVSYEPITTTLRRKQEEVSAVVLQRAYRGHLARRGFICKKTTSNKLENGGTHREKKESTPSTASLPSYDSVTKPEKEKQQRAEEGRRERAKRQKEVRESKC
T2 sequence (Q13224 27-1484, other chains not shown): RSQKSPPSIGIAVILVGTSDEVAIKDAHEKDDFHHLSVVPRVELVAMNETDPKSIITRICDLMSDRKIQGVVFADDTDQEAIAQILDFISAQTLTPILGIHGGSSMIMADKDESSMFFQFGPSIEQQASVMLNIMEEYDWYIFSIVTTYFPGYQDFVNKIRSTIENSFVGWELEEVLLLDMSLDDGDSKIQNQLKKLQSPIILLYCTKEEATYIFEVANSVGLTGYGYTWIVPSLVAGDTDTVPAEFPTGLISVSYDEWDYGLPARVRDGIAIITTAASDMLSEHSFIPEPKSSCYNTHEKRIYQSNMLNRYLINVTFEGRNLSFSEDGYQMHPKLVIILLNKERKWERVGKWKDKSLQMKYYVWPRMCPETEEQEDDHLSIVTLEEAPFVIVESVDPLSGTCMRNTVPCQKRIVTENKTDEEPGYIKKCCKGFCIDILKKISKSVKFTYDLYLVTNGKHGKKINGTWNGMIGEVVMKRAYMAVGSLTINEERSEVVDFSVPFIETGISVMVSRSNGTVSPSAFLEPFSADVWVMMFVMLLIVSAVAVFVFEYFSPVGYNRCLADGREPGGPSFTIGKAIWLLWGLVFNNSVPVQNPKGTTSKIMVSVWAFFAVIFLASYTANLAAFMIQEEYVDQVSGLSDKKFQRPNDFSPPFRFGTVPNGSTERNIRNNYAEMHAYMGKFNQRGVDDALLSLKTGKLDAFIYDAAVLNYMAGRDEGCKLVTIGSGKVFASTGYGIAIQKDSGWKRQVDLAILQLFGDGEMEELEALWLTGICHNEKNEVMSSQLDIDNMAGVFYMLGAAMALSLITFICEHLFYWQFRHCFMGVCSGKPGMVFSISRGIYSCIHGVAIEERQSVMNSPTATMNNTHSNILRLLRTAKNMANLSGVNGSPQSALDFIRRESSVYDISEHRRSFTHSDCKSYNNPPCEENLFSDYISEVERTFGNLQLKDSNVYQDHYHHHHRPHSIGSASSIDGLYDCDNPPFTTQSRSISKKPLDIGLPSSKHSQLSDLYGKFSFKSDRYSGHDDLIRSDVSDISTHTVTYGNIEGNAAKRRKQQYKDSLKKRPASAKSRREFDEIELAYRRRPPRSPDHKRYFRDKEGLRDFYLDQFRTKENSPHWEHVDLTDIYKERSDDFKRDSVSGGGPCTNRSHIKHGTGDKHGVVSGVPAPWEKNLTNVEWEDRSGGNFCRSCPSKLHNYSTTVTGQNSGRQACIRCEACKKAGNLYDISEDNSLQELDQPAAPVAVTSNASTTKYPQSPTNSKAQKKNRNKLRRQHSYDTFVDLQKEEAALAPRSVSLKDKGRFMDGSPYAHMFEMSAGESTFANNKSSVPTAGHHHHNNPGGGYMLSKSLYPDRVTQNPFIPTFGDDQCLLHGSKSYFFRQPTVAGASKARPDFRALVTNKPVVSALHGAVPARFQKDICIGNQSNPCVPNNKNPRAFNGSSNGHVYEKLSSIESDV
T3 sequence (Q13224 27-1484, other chains not shown): as above

`O=C(C1CN(Cc2cccc(Oc3ccccc3)c2)CCO1)N1CCOCC1` (stereo not drawn) [Example 106 of WO2015/130905, reference compound]: the “significant inhibition of the Nav 1.6 channel (in words)” value at Nav1.6 [1] (at 5 μM) is recorded as “not showing any significant inhibition”; on Nav1.6 [1] (at 1 and 5 μM), “do not show any significant inhibition”. For the same molecule, the “activity on the NR1-NR2B ion channel (in words)” value on NMDA NR1/NR2B receptor [2] was “do not show any activity”. Besides, the “Nav 1.6 blockage” value on Nav1.6 [3] was more than 5 µM.

The term inhibition denotes the change of the read-out against control, counted positive when it falls. As usually defined, the IC50 is the midpoint of a concentration-inhibition curve. In the case of `COCCNC(=O)C1CN(Cc2cccc(Oc3ccccc3)c2)CCO1` (stereo not drawn) [Example 107 of WO2015/130905, reference compound], the inhibition at 1 µM at Nav1.6 [1] (1 μM, normalized to vehicle control (0%) and maximal inhibition control (100%)) is -8.5%. Moreover, the inhibition at 5 µM at Nav1.6 [1] (5 μM, normalized to vehicle control (0%) and maximal inhibition control (100%)) came out at 13.1%. Also, the “significant inhibition of the Nav 1.6 channel (in words)” value at Nav1.6 [1] (at 1 and 5 μM) is given as “do not show any significant inhibition”. For the same molecule, the “activity on the NR1-NR2B ion channel (in words)” value on NMDA NR1/NR2B receptor [2] is listed as “do not show any activity”. The IC50 at NMDA NR1/NR2B receptor [4] is more than 9.26 µM.
